What is called IC50 is the point on the concentration scale where inhibition reaches its midpoint. Read a high IC50 as weaker potency. One may read the stoichiometry N as the number of molecules, sites or subunits per partner or assembly.

The values that follow come from publication PMC8642284 (Structure (London, England : 1993), 2021).

Data set [1] concerns the target T1, ACAT2 (Homo sapiens, UniProt O75908).
T1 sequence (O75908 1-522): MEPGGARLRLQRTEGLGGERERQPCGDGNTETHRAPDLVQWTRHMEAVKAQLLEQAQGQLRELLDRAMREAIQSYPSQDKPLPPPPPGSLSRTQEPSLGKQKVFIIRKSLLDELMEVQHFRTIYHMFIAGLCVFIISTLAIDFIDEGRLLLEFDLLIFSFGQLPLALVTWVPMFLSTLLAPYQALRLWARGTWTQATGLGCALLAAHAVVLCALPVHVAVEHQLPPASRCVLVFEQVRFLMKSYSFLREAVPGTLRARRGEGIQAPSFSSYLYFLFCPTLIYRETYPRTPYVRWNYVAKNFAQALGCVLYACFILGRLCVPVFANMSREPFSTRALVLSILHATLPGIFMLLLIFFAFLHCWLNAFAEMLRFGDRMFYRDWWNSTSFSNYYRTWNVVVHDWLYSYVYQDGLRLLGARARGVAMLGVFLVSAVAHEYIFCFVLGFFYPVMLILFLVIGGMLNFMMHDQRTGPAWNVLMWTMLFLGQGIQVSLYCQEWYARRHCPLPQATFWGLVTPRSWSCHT
Nature of the data set: cryo-EM structure. The format is biochemical.

Data set [2] deals with the molecule itself. In words: cryo-EM structure.

In data set [1], `CC(C)c1cccc(C(C)C)c1NC(=O)NCC1(c2ccc(N(C)C)cc2)CCCC1` [nevanimibe] gave an IC50 of 710 nM. This counts as sub-micromolar.

B1: human ACAT2 (acyl-CoA:cholesterol acyltransferase 2) (enzyme)
chain: EPGGARLRLQRTEGLGGERERQPCGDGNTETHRAPDLVQWTRHMEAVKAQLLEQAQGQLRELLDRAMREAIQSYPSQDKPLPPPPPGSLSRTQEPSLGKQKVFIIRKSLLDELMEVQHFRTIYHMFIAGLCVFIISTLAIDFIDEGRLLLEFDLLIFSFGQLPLALVTWVPMFLSTLLAPYQALRLWARGTWTQATGLGCALLAAHAVVLCALPVHVAVEHQLPPASRCVLVFEQVRFLMKSYSFLREAVPGTLRARRGEGIQAPSFSSYLYFLFCPTLIYRETYPRTPYVRWNYVAKNFAQALGCVLYACFILGRLCVPVFANMSREPFSTRALVLSILHATLPGIFMLLLIFFAFLHCWLNAFAEMLRFGDRMFYRDWWNSTSFSNYYRTWNVVVHDWLYSYVYQDGLRLLGARARGVAMLGVFLVSAVAHEYIFCFVLGFFYPVMLILFLVIGGMLNFMMHDQRTGPAWNVLMWTMLFLGQGIQVSLYCQEWYARRHCPLPQATFWGLVTPRSWSCHT
Consider B1, for which the “stoichiometry N” value in data set [2] was found to be 4.
